# How the values were obtained:
# granulation tissue = test: Subcutaneous Ivalon sponge implantation, histological analysis of granulation tissue formation; format: in vivo, Sprague-Dawley rats; conditions: score on the 0-4 scale; tested in a similar manner to collagen/sucrose octasulfate; potassium salts
# Procedure: By means of subcutaneous implantation of Ivalon sponges the phase of granulation tissue formation in the repair process can be evaluated. Following a vigorous cleanup procedure the sponge material evokes only minimal inflammatory response. Sterile sponges prepared as set forth in Example 12 were injected with a 50 µl suspension of collagen/sucrose octasulfate suspension prepared as in Example 12. […] The sponges were surgically implanted into 350-500 g, male Sprague-Dawley rats. Before the implantation procedure three rats were anesthetized and their dorsal surfaces shaved and wiped with Predodyne (West Chemical Products, Lynbrook, N.Y.). Six 6 mm incisions were cut in groups of two (one on each side of the vertebral column rostrally, centrally and caudally), spaced equi-distant from each other between the pectoral and pelvic girdles on the dorsal surface. At each incision a pocket was made between the panniculus carnosus and the dermis and two sponges inserted into it, one rostrally and the other caudally; a total of 12 sponges were thus implanted in each animal. The position of each test preparation was alternated between the rostral, central and caudal positions to control the variation due to anatomical location. The incisions were closed with 11-mm Michel wound clips (Propper, Long Island City, N.Y.). Seven days following implantation the animals were sacrificed and the sponges surgically removed with their adhered connective tissue capsules. Controls, sponges injected with either PBS or collagen only were treated in a similar manner. In all, approximately 120 sponges per group were used in the study and randomly selected for biochemical and histologic analysis. The sponges were fixed in formalin and embedded in either plastic or Paraplast following dehydration. Sections were stained with hemotocylin and eosin, trichrome, silver or PAS. […] Mesenchymal cell infiltration was also scored on a predetermined scale from 0-4. […] Although the whole sponge area was used for analysis we noted that the most striking differences between the various treatments were evident in the center of the sponge. Therefore, the histologic appearance of the central zone was selected for presentation.
# bone fracture = test: Repair of bone fractures (fractured ulna, loss of minerals on decalcification, histology); format: in vivo, guinea pigs; conditions: for after decalcification / before decalcification: ten days after surgery
# Procedure: The ulnae of 18 guinea pigs were exposed surgically and then fractured at the midshaft, using a very fine dental burr as a saw. The intact radius served as an immobilization splint. The animals were divided into six groups, three in each, according to the treatment at the fracture site, which was as follows: • Group 1. Untreated controls • Group 2. Sucrose octasulfate 1.0 mg/ml instilled at the fracture site with a syringe • Group 3. Sucrose octasulfate 4.0 mg/ml • Group 4. Collagen (a native 0.25% neutral salt solution) • Group 5. Collagen plus sucrose octasulfate 1.0 mg/ml • Group 6. Collagen plus sucrose octasulfate 4.0 mg/ml
# The animals were sacrified ten days after surgery, and the fractured bones were dissected and processed for both histologic and biochemical analyses.
# rabbit corneas = test: Rabbit cornea assay for angiogenesis; format: in vivo
# Procedure: This may offer an explanation for the dense vascular bed that characterized the granulation tissue in the in-vivo experiments. Sucrose octasulate at concentrations of 0.1 to 100 µg/ml was encapsulated in Hydron and implanted in rabbit corneas. The method used was that described in Surgery 96:48-54, 1984. The […] solution (sucrose octasulfate or PBS) was mixed with an equal volume of Hydron and allowed to polymerize under reduced pressure. […] Eyes were evaluated at days 1 through 14 post-implantation for gross inflammation and, as described by Hunt, et al, in Surgery 96:48-54, 1984, for angiogenesis. Corneal neovascularization was graded on a scale of 0-4+ (integers only being assigned). Zero denotes a normal eye with no ingrowth on limbal vessels into the corneal stroma; 1+, up to 1 mm of capillary ingrowth in a localized arc adjacent to the injection site; 2+, […] ingrowth; 3+, 2-3 mm ingrowth; and 4+, 3 mm or greater ingrowth in a wide arc along the limbal edge toward the injection site. […] To ascertain that the observed angiogenesis was not secondary to an inflammatory process some eyes with a positive response were removed and stained with H&E and a nonspecific esterase stain as early as two days after implantation.
# fibroblasts = test: Cell migration assay (Boyden chamber); format: cell-based; set-up: Chemokinesis: scale not given here
# Procedure: Stimulation of directed movement of fibroblasts was assayed as described by Banda M.J., Knighton D.R., Hunt T.K., Werb A., Isolation of a nonmitogenic angiogenesis factor from wound fluid, Proc. Natl. Acad. Sci. 79:7773-7777, 1982. Briefly, solutions of sucrose octasulfate in PBS in concentrations resulting in final concentrations ranging from 10 -² to 10 -⁷ g/ml diluted to a final volume of 300 µℓ in DMEM supplemented with 10 percent rabbit platelet-poor plasma serum were placed in the bottom of Boyden blind-well chambers. Polylysine-coated, 5 µ -pore diameter, polycarbonate filters (Nucleopore) were placed over the test solution and 1.75-3.0 x 10⁶ fibroblasts suspended in DMEM added to the top compartment. The chambers were incubated for two and a half hours at 37 °C,
# At the end of incubation of the top filter was fixed, stained and evaluated by counting the number of cells that had migrated to the bottom side of the filter. For each experiment five random fields per filter and at least 15 filters per each concentration of sucrose octasulfate were conducted. […]
# pressure ulcer = test: Clinical double-blind dose-response trial in pressure ulcers; format: in vivo, patients; conditions: for Results: twice daily
# Procedure: Five patients were subjected to a dose-response trial using sucrose octasulfate in water. The test was a double-blind trial with four treatment arms, 0.1, 1.0, or 10mg/ml or placebo (sterile water for irrigation). Patients were entered following debridement of the study pressure ulcer and a gauze sponge was saturated with sucrose octasulfate solution (i.e. sucrose octasulfate in sterile water vehicle) or placebo and packed into the ulcer crater, then covered with biobrane dressing to keep the area moist. Treatments were applied twice daily for a 30 day interval for four patients and for three weeks for the fifth patient.
# The patient population was bedridden comatose adults with chronic ulcers having failed with some form of previous treatment(s). The patients were kept on the same ward as they had been during months prior to the trials so nursing care was uniform prior to and during the study. Thus, any response is favourable. The first four cases are nearly uniform in that three of four treatment ulcers were trochanteric.
# [1] = sucrose octasulfate 1 mg/ml at fracture site
# [2] = sucrose octasulfate 4 mg/ml at fracture site
smiles,measurement,setting,value
"O=S(=O)([O-])OC[C@H]1O[C@@](COS(=O)(=O)[O-])(O[C@H]2O[C@H](COS(=O)(=O)[O-])[C@@H](OS(=O)(=O)[O-])[C@H](OS(=O)(=O)[O-])[C@H]2OS(=O)(=O)[O-])[C@@H](OS(=O)(=O)[O-])[C@@H]1OS(=O)(=O)[O-].[K+].[K+].[K+].[K+].[K+].[K+].[K+].[K+] [Sucrose Octasulfate, potassium sucrose octasulfate]",Sponge,granulation tissue,4
same,after decalcification,bone fracture; [1],2.20
same,before decalcification,bone fracture; [1],7.00
same,decrease,"bone fracture; sucrose octasulfate 1 mg/ml, loss of minerals following decalcification",4.80 mg
same,decrease,"bone fracture; sucrose octasulfate 1 mg/ml, percent loss of minerals following decalcification",68.6%
same,after decalcification,bone fracture; [2],2.60
same,before decalcification,bone fracture; [2],5.90
same,decrease,"bone fracture; sucrose octasulfate 4 mg/ml, loss of minerals following decalcification",3.30 mg
same,decrease,"bone fracture; sucrose octasulfate 4 mg/ml, percent loss of minerals following decalcification",55.9%
same,extent of angiogenesis,rabbit corneas; 0.1 µg/ml,negative
same,No. Positive Responses,"rabbit corneas; 0.1 µg/ml in Hydron, 5 corneas implanted",0
same,No. Positive Responses,"rabbit corneas; 1 µg/ml in Hydron, 6 corneas implanted",1
same,No. Positive Responses,"rabbit corneas; 10 µg/ml in Hydron, 5 corneas implanted",4
same,No. Positive Responses,"rabbit corneas; 100 µg/ml in Hydron, 9 corneas implanted",8
same,Angiogenesis,"rabbit corneas; grade on scale 0-4+ in rabbit cornea, potassium salts",4
same,angiogenic response,rabbit corneas; implantation of 10 and 100 µg/ml,most potent angiogenic response
same,extent of angiogenesis,"rabbit corneas; lower concentration, 1.0 g/ml as printed",decreased
same,Chemokinesis,"fibroblasts; score, Boyden chamber, scale not defined, potassium salts",4
same,"Migrated fibroblasts, fold increase over negative control","fibroblasts; sucrose octasulfate 10⁻² g/ml, 2.5 hours at 37 °C",0.4 fold increase over negative control
same,"Migrated fibroblasts, fold increase over negative control",fibroblasts; sucrose octasulfate 10⁻³ g/ml,0.4 fold increase over negative control
same,"Migrated fibroblasts, fold increase over negative control",fibroblasts; sucrose octasulfate 10⁻⁴ g/ml,0.6 fold increase over negative control
same,"Migrated fibroblasts, fold increase over negative control",fibroblasts; sucrose octasulfate 10⁻⁵ g/ml,2.2 fold increase over negative control
same,"Migrated fibroblasts, fold increase over negative control",fibroblasts; sucrose octasulfate 10⁻⁶ g/ml,2.1 fold increase over negative control
same,"Migrated fibroblasts, fold increase over negative control",fibroblasts; sucrose octasulfate 10⁻⁷ g/ml,1.1 fold increase over negative control
same,Depth (prestudy),"pressure ulcer; Patient 001, 10 mg/ml",0.5 cm
same,Results,"pressure ulcer; Patient 001, 10 mg/ml in water, 30 days",no reduction in ulcer depth
same,Depth (after treatment),"pressure ulcer; Patient 001, 10 mg/ml, 30 days",0.5 cm
same,Depth (prestudy),"pressure ulcer; Patient 002, 1 mg/ml",3.0 cm
same,Results,"pressure ulcer; Patient 002, 1 mg/ml in water, 30 days",reduction in ulcer depth
same,Depth (after treatment),"pressure ulcer; Patient 002, 1 mg/ml, 30 days",1.5 cm
same,Depth (prestudy),"pressure ulcer; Patient 003, 0.1 mg/ml",0.5 cm
same,Results,"pressure ulcer; Patient 003, 0.1 mg/ml in water, 30 days",some reduction in ulcer depth
same,Depth (after treatment),"pressure ulcer; Patient 003, 0.1 mg/ml, 30 days",0.3 cm
same,Depth (prestudy),"pressure ulcer; Patient 005, 10 mg/ml",2.8 cm
same,Results,"pressure ulcer; Patient 005, 10 mg/ml in water, three weeks",reduction in ulcer depth
same,Depth (after treatment),"pressure ulcer; Patient 005, 10 mg/ml, after 3 weeks of treatment",1.6 cm
